Earlier results on one molecule are cited in patent US5919770A, “Metabolites of ginseng saponins by human intestinal bacteria and its preparation for an anticancer” (Il Hwa Co., Ltd., priority 1996, dated 1999).

The subject of this data set is liver cancer cells. The note with it: Japanese Patent No. 89-28759; cited from earlier work.

For the molecule `CC(C)=CCC[C@](C)(O)[C@H]1CC[C@]2(C)[C@@H]1[C@H](O)C[C@@H]1[C@@]3(C)CC[C@H](O[C@@H]4O[C@H](CO)[C@@H](O)[C@H](O)[C@H]4O)C(C)(C)[C@@H]3CC[C@]12C` [ginsenoside Rh2, 3-0-β-D-glucopyranosyl-20(s)-protopanaxadiol], the “inhibition of the proliferation of liver cancer cells” value is recorded as “inhibit the proliferation of liver cancer cells”.
